This passage reports IC50 and Ki results from patent US12378186B2, “Inhibitors of meprin α and β” (VIVORYON THERAPEUTICS N.V., priority 2016, dated 2025).

Like-named read-outs stand apart in the source and are kept apart here.

The target in one experiment is T1, hMeprin α (Homo sapiens, UniProt Q16819).
T1 sequence (Q16819 66-746): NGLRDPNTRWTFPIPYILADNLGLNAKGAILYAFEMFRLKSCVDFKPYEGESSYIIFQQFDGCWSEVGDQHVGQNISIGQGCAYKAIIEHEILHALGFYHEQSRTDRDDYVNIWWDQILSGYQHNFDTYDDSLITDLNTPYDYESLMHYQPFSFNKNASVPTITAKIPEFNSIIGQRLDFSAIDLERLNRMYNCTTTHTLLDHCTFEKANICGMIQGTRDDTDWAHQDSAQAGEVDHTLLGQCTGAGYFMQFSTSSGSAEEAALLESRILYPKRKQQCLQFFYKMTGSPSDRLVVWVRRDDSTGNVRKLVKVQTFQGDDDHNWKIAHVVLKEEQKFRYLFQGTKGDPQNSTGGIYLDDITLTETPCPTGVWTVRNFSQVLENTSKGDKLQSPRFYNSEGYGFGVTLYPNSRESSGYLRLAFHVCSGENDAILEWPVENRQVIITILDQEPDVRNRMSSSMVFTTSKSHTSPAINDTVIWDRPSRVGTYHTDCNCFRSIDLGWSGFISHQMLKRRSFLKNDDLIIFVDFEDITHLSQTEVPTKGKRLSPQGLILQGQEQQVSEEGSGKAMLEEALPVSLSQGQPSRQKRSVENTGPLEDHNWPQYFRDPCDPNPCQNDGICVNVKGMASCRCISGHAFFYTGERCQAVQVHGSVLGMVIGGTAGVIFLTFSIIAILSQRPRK
The experiment is described as follows: biochemical. Type of experiment: biochemical. As to the method:
(§1) A typical assay of 250 μl total volume measured in black 96 well plates consisted of 100 μl buffer, 50 μl enzyme at a final concentration of 5e-8 M to 5e-9 M, 50 μl substrate (0.15 to 80 μM, in buffer, 0.5% DMSO) and 50 μl inhibitor solution (in buffer, 1% DMSO). In case of 125 μl assay volume (black 96 half area well plates) all volumes were cut in half. Enzymatic activity of ADAMs was measured in 384 well plates with 60 μl total assay volume consisting of 20 μl inhibitor, 20 μl buffer, 10 μl enzyme and 10 μl substrate.
(§2) Ki values were assessed combining 4 substrate concentrations (5-40 μM) with at least 5 inhibitor concentrations. […] Initial velocities were determined and converted into concentration units applying a standard curve obtained after complete conversion of different substrate concentrations under assay conditions. All measurements were performed using a fluorescence plate reader (FLUOstar OPTIMA, BMG Labtech) at 30° C. The kinetic parameters were determined at least in duplicates on separate days. The excitation/emission wavelength was 340/420 nm. The kinetic data was evaluated using GraFit software (version 7.0.3, Erithacus Software).
(§3) The following compounds according to the present invention were synthesized using the above general procedures. IC50 refers to the average IC50 values measured as described above, SD (IC50) refers to the standard deviation of the average IC50 values, Ki refers to the average K; values measured as described above, and SD (Ki) to the standard deviation of the average Ki values.

Another experiment addresses T2, hMeprin β (Homo sapiens, UniProt Q16820).
T2 sequence (Q16820 62-701): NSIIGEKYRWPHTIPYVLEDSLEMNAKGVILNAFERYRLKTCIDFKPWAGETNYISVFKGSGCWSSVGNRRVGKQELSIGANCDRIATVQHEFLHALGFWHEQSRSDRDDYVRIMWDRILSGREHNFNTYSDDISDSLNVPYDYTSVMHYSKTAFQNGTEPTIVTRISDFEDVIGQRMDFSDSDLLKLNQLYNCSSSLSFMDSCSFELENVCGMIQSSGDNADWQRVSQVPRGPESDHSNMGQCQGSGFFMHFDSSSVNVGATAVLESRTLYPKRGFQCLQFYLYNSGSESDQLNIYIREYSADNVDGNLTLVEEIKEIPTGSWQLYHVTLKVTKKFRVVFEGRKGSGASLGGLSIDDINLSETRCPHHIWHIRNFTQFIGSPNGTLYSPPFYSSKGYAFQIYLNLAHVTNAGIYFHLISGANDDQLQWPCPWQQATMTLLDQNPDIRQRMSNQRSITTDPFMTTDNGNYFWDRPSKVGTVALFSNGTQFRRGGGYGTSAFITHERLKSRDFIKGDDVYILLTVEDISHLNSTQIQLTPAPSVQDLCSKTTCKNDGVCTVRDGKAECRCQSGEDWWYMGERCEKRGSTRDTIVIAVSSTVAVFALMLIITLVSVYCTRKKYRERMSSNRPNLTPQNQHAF
The experiment is described as follows: Enzymatic assay, cleavage of internally quenched peptide substrate, hMeprin β. In kind it is biochemical. As to the method:
as §1, §2, §3

[1] abbreviates: average IC50, 10 μM substrate, 30° C., 40 mM HEPES pH 7.4, read-out: Meprin Alpha IC50.
The mark [2] stands for this setting: average IC50, 10 μM substrate, 30° C., 40 mM Tris pH 8.0, read-out: Meprin Beta IC50.
The mark [3] stands for this setting: average Ki, 4 substrate concentrations (5-40 μM), 30° C., 40 mM HEPES pH 7.4, read-out: Meprin Alpha Ki.

Take `O=C(O)CC[C@@H](NCc1cccc(C(=O)O)c1)C(=O)NO` [Example 44, 3-[[[(1R)-3-carboxy-1-(hydroxycarbamoyl)-propyl]amino]methyl]benzoic acid]: the IC50 on hMeprin α (setting [1]) amounted to 32100 nM; on hMeprin β (setting [2]), 768 nM. For the same compound, affinity at hMeprin β was put at a Ki of 277 nM.

On to `O=C(O)C[C@H](NCc1cccc(C(=O)O)c1)C(=O)NO` [Example 45, 3-[[[(1S)-1-(carboxymethyl)-2-(hydroxyamino)-2-oxo-ethyl]amino]methyl]benzoic acid], for which the concentration for half-maximal inhibition (IC50) came to 60400 nM on hMeprin α (setting [1]) and 1320 nM at hMeprin β (setting [2]). Also, the inhibition constant Ki on hMeprin β was determined as 644 nM.

Regarding `O=C(O)C[C@@H](NCc1cccc(C(=O)O)c1)C(=O)NO` [Example 46, 3-[[[(1R)-1-(carboxymethyl)-2-(hydroxyamino)-2-oxo-ethyl]amino]methyl]benzoic acid], the 50% inhibitory concentration (IC50) came out at 15100 nM at hMeprin α (setting [1]) and 548 nM at hMeprin β (setting [2]). The compound also showed a Ki on hMeprin β of 254 nM.

With `O=C(CN(Cc1ccc(F)c(O)c1F)Cc1ccc(F)c(O)c1F)NO` [Example 47, 2-[bis[(2,4-difluoro-3-hydroxy-phenyl)-methyl]amino]ethanehydroxamic acid], the IC50 amounted to 626 nM at hMeprin α (setting [1]) and 23 nM on hMeprin β (setting [2]). The results for the Ki at hMeprin α (setting [3]) and at hMeprin β were 189 nM and 12 nM, respectively.

For `O=C(CN(Cc1cc(F)c(O)c(F)c1)Cc1cc(F)c(O)c(F)c1)NO` [Example 48, 2-[bis[(3,5-difluoro-4-hydroxy-phenyl)methyl]-amino]ethanehydroxamic acid], the IC50 is 1300 nM on hMeprin α (setting [1]) and 272 nM at hMeprin β (setting [2]). Further, the Ki at hMeprin α (setting [3]) was found to be 263 nM; at hMeprin β it was 118 nM.

Regarding `O=C(CN(Cc1c(F)ccc(O)c1F)Cc1c(F)ccc(O)c1F)NO` [Example 49, 2-[bis[(2,6-difluoro-3-hydroxy-phenyl)methyl]-amino]ethanehydroxamic acid], the 50% inhibitory concentration (IC50) amounted to 5600 nM at hMeprin α and 5520 nM at hMeprin β (setting [2]). Also, the results for the inhibition constant Ki at hMeprin α and on hMeprin β were 998 nM and 1960 nM, respectively.

On to `O=C(CN(Cc1ccc(F)c(O)c1)Cc1ccc(F)c(O)c1)NO` [Example 50, 2-[bis[(4-fluoro-3-hydroxy-phenyl)methyl]-amino]ethanehydroxamic acid], for which the values for the concentration for half-maximal inhibition (IC50) on hMeprin α (setting [1]) and at hMeprin β (setting [2]) were 986 nM and 1060 nM, respectively. For the same compound, the Ki turned out to be 306 nM at hMeprin α (setting [3]) and 352 nM at hMeprin β.

On to `O=C(CN(Cc1cccc(O)c1F)Cc1cccc(O)c1F)NO` [Example 51, 2-[bis[(2-fluoro-3-hydroxy-phenyl)methyl]-amino]ethanehydroxamic acid], for which the IC50 on hMeprin α (setting [1]) was 1210 nM; on hMeprin β (setting [2]), 2900 nM. Moreover, the Ki on hMeprin α (setting [3]) amounted to 335 nM; on hMeprin β it was 1170 nM.

For `O=C(CN(Cc1ccc(Cl)c(O)c1F)Cc1ccc(Cl)c(O)c1F)NO` [Example 52, 2-[bis[(4-chloro-2-fluoro-3-hydroxy-phenyl)-methyl]amino]ethanehydroxamic acid], the Ki on hMeprin α (setting [3]) turned out to be 104 nM; at hMeprin β, 8 nM.

As for `COc1ccc(CN(CC(=O)NO)Cc2ccc(F)c(O)c2F)cc1` [Example 53, 2-[(2,4-difluoro-3-hydroxy-phenyl)methyl-[(4-methoxyphenyl)methyl]amino]ethanehydroxamic acid], the IC50 amounted to 995 nM on hMeprin α (setting [1]) and 331 nM against hMeprin β. Further, the inhibition constant (Ki) amounted to 328 nM at hMeprin α (setting [3]) and 158 nM at hMeprin β.

For the compound `CCOC(=O)c1cccc(CN(CC(=O)NO)Cc2cccc(C(=O)OCC)c2)c1` [Example 54, ethyl 3-[[(3-ethoxycarbonylphenyl)methyl-[2-(hydroxyamino)-2-oxo-ethyl]amino]methyl]benzoate], the values for the IC50 on hMeprin α (setting [1]) and at hMeprin β (setting [2]) were 7270 nM and 94800 nM, respectively. Also, the affinity at hMeprin β corresponds to a Ki of 1760 nM.

For the compound `COc1c(F)ccc(CN(CC(=O)NO)Cc2ccc(F)c(OC)c2F)c1F` [Example 58, 2-[bis[(2,4-difluoro-3-methoxy-phenyl)methyl]-amino]ethanehydroxamic acid], the IC50 on hMeprin α (setting [1]) worked out at 2830 nM; at hMeprin β (setting [2]), 18200 nM. The inhibitory constant (Ki) on hMeprin α (setting [3]) amounted to 726 nM.

As a reminder, the IC50 is the midpoint of a concentration-inhibition curve. As a reminder, the Ki is the equilibrium dissociation constant of an inhibitor or competing ligand from its target.
